One test deals with T1, `Enkephalinase` (Mus musculus, UniProt Q61391).
T1 construct: The lung and brain (less cerebellum) were rapidly dissected, weighed and homogenised; from tissue; host or cells: mouse lung and brain (less cerebellum) homogenate
T1 sequence (Q61391 1-750): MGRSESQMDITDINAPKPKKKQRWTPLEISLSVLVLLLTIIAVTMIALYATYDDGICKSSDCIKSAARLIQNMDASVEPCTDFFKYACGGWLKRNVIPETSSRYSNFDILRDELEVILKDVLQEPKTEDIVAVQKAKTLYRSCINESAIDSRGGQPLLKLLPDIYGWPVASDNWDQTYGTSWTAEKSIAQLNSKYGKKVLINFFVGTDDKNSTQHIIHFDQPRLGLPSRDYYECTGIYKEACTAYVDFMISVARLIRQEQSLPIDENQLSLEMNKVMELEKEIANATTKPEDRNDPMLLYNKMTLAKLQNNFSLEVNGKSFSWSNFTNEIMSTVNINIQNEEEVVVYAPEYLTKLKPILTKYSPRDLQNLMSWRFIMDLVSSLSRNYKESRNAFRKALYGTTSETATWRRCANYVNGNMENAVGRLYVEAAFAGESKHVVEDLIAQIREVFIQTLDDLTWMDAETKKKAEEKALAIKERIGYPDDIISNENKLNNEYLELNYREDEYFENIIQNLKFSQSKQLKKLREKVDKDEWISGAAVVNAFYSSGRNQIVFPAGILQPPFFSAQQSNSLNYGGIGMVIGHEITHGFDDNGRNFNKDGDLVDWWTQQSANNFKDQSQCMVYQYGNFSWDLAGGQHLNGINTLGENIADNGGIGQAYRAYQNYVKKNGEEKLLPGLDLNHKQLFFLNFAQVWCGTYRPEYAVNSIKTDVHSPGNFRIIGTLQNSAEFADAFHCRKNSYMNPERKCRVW
Briefly: Activity ex vivo: `enkephalinase` activity in lung and brain homogenates of mice dosed i.p. with test compound. To be noted: for ED50: mouse, ip, 0.25 h; for Lung/Brain (ED50 ratio): ratio of apparent ED50 values for lung and brain, 15 min. The method, then: Mice were dosed i.p. with 0-30 mg/Kg of test compound suspended in 0.25% w/v celacol/0.85% w/v saline. The mice were killed 15 minutes after administration of the doses. The lung and brain (less cerebellum) were rapidly dissected, weighed and homogenised in 100 mM tris-HCl pH 7.4 buffer containing 1 uM Captopril to give a 9.1% W/V homogenate. `Enkephalinase` activity in the homogenate was measured by incubation at 37° C. with 100 μM [^3 H]-D-Tyr-D-Ala-L-Gly-L-Gly-L-Phe-L-leu for 10 minutes (lung) or 30 minutes (brain).

The next test deals with T2, enkephalinase Al (Rattus norvegicus, UniProt P07861).
T2 construct: from tissue; host or cells: rat striatum (membrane pellet, Triton X-100 solubilised, DEAE-cellulose and Sephacryl S-300)
T2 sequence (P07861 1-750): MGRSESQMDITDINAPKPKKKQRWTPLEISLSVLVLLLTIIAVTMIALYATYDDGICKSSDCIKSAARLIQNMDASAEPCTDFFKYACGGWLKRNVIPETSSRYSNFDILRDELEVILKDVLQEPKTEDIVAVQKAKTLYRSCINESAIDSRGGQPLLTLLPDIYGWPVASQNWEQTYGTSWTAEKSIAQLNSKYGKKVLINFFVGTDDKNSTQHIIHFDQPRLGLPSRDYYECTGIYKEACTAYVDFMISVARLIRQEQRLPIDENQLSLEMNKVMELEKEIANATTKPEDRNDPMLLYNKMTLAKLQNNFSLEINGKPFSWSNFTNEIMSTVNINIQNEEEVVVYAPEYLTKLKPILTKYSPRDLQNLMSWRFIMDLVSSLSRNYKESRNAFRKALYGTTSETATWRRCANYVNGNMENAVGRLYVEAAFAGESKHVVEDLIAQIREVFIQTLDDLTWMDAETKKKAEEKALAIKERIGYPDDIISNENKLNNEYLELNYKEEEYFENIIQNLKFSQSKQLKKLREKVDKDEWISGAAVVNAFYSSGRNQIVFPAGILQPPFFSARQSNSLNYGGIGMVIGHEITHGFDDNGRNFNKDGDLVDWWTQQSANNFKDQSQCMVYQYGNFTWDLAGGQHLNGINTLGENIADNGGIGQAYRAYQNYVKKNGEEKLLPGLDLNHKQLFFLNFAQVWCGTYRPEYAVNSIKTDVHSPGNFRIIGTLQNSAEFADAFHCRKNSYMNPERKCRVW
Briefly: Enkephalinase-inhibiting activity in vitro (3H-TGG generation from 3H-leucine enkephalin by purified enkephalinase Al). As to conditions: approximate, determined graphically; leucine enkephalin 5×10^-5 M, 30° C., 30 mins with enzyme; read-out: IC50 (concentration of test compound required for 50% inhibition of 3H-TGG generation). It is filed as biochemical. As to the method: The compounds were investigated for enkephalinase inhibiting activity using the following method.
Rats were killed by decapitation and the striata dissected out on ice. The pooled tissues were homogenised on ice-cold Tris/hydrochloric acid buffer (50 mM, pH 7.70, 30 ml per gram of tissue) and centrifuged (50,000 g, 15 mins). The resulting supernatent was discarded and the remaining pellet washed three times. The washed pellet was solubilised by resuspension in half the volume of buffer as before containing 1.0% (v/v) Triton X-100 and incubated at 37° C. for 45 mins. The suspension was then centrifuged at 100,000 g for 60 mins and the solubilised enzymes contained in the supernatant separated by DEAE-cellulose column chromatography. Enkephalinase Al was further purified by Sephacryl S.300 chromatograph.
Enkephalinase-inhibiting activity was estimated by the following procedure.
Separation of (a) unchanged ^3 H-leucine enkephalin and (b) ^3 H-Tyr-Gly-OH(^3 H-TGG), generated from (a) by enkephalinase Al in the incubation mixture was effected by thin layer chromatography (plastic silica gel plates of 0.1 mm layer thickness, solvent system ethyl acetate:propan-2-ol:5% (v/v) acetic acid, 2:2:1) using solutions of the cold compounds as carriers. After drying the materials were visualized with ninhydrin and appropriate areas of the plates cut out and placed in scintillation vials containing 50% methanol/0.1M hydrochloric acid to elute the ^3 H label. Bioflor reagent (10 ml) was then added and the radioactivity determined by liquid scintillation counting.

The subject of the next test is ACE and enkephalinase. To be noted: specificity for ACE over enkephalinase; Swerts et al; cited from earlier work.
Where [1] appears, read: brain (less cerebellum) homogenate, 15 minutes after administration, read-out: Apparent ED50 Brain.
[2] abbreviates: lung homogenate, 15 minutes after administration, read-out: Apparent ED50 Lung.

pIC50: −log10 of the molar value. Where two headings read alike, the source gives them in different places. Bounds are passed on as bounds.

For the compound `CCOC(=O)[C@H](CC(C)C)NC(=O)C(Cc1ccccc1)C(=O)NO` (stereo partly drawn) [Compound 4, Ethyl N-[(DL)-2-hydroxycarbamoyl)-3-phenylpropanoyl]-L-leucinate], the ED50 at `Enkephalinase` (setting [1]) is greater than 85.7 µmol/kg; on `Enkephalinase` (setting [2]) it was 8.6 µmol/kg. Also, on `Enkephalinase`, the “Lung/Brain (ED50 ratio)” value is on record as greater than 10.
As to `COc1ccc(CC(C(=O)NO)C(=O)N[C@@H](CC(C)C)C(=O)O)cc1` (stereo partly drawn) [Compound 3, N-[2-(N-Hydroxycarbamoyl)-3-(4-methoxyphenyl)-propanoyl]-L-leucine], the pIC50 on enkephalinase Al is 6.12.
Same read-out and setting: for `CC(C)C[C@H](NC(=O)C(Cc1ccc(Br)cc1)C(=O)NO)C(=O)O` (stereo partly shown) [Compound 10] the value was 7.22.
Regarding `CC(C)C[C@H](NC(=O)C(Cc1ccc([N+](=O)[O-])cc1)C(=O)NO)C(=O)O` (stereo partly shown) [Compound 9], the pIC50 at enkephalinase Al is 6.28.
As to `C[C@H](CS)C(=O)N1CCC[C@H]1C(=O)O` [Captopril, 1-(D-3-mercapto-2-methylpropanoyl)-L-proline (S,S)], the “concentration required to inhibit ACE by 50% lower than that required for the same inhibition of enkephalinase” value with ACE and enkephalinase was “approximately 1000 fold”.
For `O=C(O)CNC(=O)C(CS)Cc1ccccc1` (racemic) [Thiorphan, (DL-3-mercapto-2-benzylpropanoyl)-glycine, reference compound], the results for the ED50 on `Enkephalinase` (setting [1]) and on `Enkephalinase` (setting [2]) were 3.92 µmol/kg and 0.69 µmol/kg, respectively.
With `CC(C)C[C@H](NC(=O)C(Cc1ccccc1)C(=O)NO)C(=O)OC(C)(C)C` (stereo partly drawn) [Compound 6, Tert-butyl N-[(DL)-2-hydroxycarbamoyl)-3-phenylpropanoyl]-L-leucinate], the “Apparent ED50 Brain” value on `Enkephalinase` (brain (less cerebellum) homogenate, 15 minutes after administration) is recorded as “No inhibn. at 26.5”. Moreover, the ED50 on `Enkephalinase` (setting [2]) was greater than 26.5 µmol/kg.
Take `CC(C)C[C@H](NC(=O)C(Cc1ccccc1)C(=O)NO)C(=O)O` (stereo partly drawn) [Compound 1, N-[2-(N-Hydroxycarbamoyl)-3-phenylpropanoyl]-L-leucine]: the pIC50 on enkephalinase Al was 7.72. Further, the figures for the median effective dose (ED50) on `Enkephalinase` (setting [1]) and at `Enkephalinase` (setting [2]) were 14.6 µmol/kg and 6.1 µmol/kg, respectively. On `Enkephalinase`, the “Lung/Brain (ED50 ratio)” value was found to be 2.4.
As to `CC(C)C[C@H](NC(=O)C(Cc1ccc(C(C)C)cc1)C(=O)NO)C(=O)O` (stereo partly drawn) [Compound 2, N-[2-(N-Hydroxycarbamoyl)-3-(4-isopropylphenyl)propanoyl]-L-leucine], the pIC50 on enkephalinase Al was 6.92.

The term ED50 denotes the dose that gives a 50% effect, or the effect in half of the subjects.

Source of the values: patent US4504492A, “Pharmaceutical amides, and preparation, formulations and use thereof” (Burroughs Wellcome Co., priority 1981, dated 1985).
